Read-outs that look alike come from different tables or passages of the source.
What was measured:
Assay in all cases: Test A postemergence
Type in all cases: in vivo
corn (Zea mays) = conditions: Zea mays, post-emergence, 240 h; for Corn plant response rating (crop injury, 0 = no effect, 100 = complete kill) at 125 g/ha / plant injury at 125 g/ha: 125 g ai/ha; for Corn plant response rating (crop injury, 0 = no effect, 100 = complete kill) at 125 g/ha: visual injury after approximately 10 d; for plant injury at 125 g/ha: read-out: Corn plant response rating (0 to 100 scale); for Corn plant response rating (crop injury, 0 = no effect, 100 = complete kill) at 500 g/ha / plant injury at 500 g/ha: 500 g ai/ha; for Corn plant response rating (crop injury, 0 = no effect, 100 = complete kill) at 500 g/ha: visual injury, approx. 10 d; for plant injury at 500 g/ha: 0 to 100 scale, 0 is no effect, 100 is complete control, read-out: Corn plant response rating
In short: (§1)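 Visual injury scores from 0, no effect, to 100, complete control, were assigned versus untreated controls roughly 10 d after treatment in the greenhouse. Test chemicals, formulated with surfactant in a non-phytotoxic solvent, were applied to planted seeds as a preemergence soil spray or postemergence to one- to two-leaf plants 2 to 10 cm tall, in loam–sand soil.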

[1] = test system: ragweed (common ragweed, Ambrosia elatior); conditions: Ambrosia artemisiifolia, post-emergence, 240 h; for pest or weed control at 125 g/ha: 125 g ai/ha; for pest or weed control at 500 g/ha: 500 g ai/ha
In short: as §1

[2] = test system: barnyardgrass (Echinochloa crus-galli); conditions: Echinochloa crus-galli, post-emergence, 240 h; for pest or weed control at 125 g/ha: 125 g ai/ha; for pest or weed control at 500 g/ha: 500 g ai/ha
In short: as §1

Kochia (Kochia scoparia) = conditions: Bassia scoparia, post-emergence, 240 h; for pest or weed control at 125 g/ha: 125 g ai/ha; for pest or weed control at 500 g/ha: 500 g ai/ha, visual injury, approx. 10 d
In short: as §1

[3] = test system: Galium (catchweed bedstraw, Galium aparine); conditions: Galium, post-emergence, 240 h; for pest or weed control at 125 g/ha: 125 g ai/ha; for pest or weed control at 500 g/ha: 500 g ai/ha
In short: as §1

[4] = postemergence, 0 to 100 scale (0 no effect, 100 complete control)
[5] = postemergence, visual injury after approximately 10 d, 0 to 100 scale (0 no effect, 100 complete control), read-out: Plant response rating, Ragweed
[6] = postemergence, visual injury after approximately 10 d, 0 to 100 scale (0 no effect, 100 complete control), read-out: Plant response rating, Barnyardgrass
[7] = postemergence, visual injury after approximately 10 d, 0 to 100 scale (0 no effect, 100 complete control), read-out: Plant response rating, Kochia
[8] = postemergence, visual injury after approximately 10 d, 0 to 100 scale (0 no effect, 100 complete control), read-out: Plant response rating, Galium
[9] = Postemergence, visual rating about 10 d after treatment
[10] = Postemergence, 0 to 100 scale (0 no effect, 100 complete control)
[11] = Postemergence, visual rating about 10 d after treatment, read-out: Ragweed plant response rating (0 to 100 scale)
[12] = Postemergence, visual injury, 0 to 100 scale (0 no effect, 100 complete control), approx. 10 d, read-out: Plant response rating, Ragweed
[13] = Postemergence, visual rating about 10 d after treatment, read-out: Kochia plant response rating (0 to 100 scale)
[14] = Postemergence, 0 to 100 scale (0 no effect, 100 complete control), read-out: Plant response rating, Kochia
[15] = Postemergence, visual rating about 10 d after treatment, read-out: Galium plant response rating (0 to 100 scale)
[16] = Postemergence, visual injury, 0 to 100 scale (0 no effect, 100 complete control), approx. 10 d, read-out: Plant response rating, Galium
[17] = postemergence, visual injury vs untreated controls after approx. 10 d, 0 = no effect, 100 = complete control
[18] = postemergence, visual injury vs untreated controls after approx. 10 d, 0 = no effect, 100 = complete control, read-out: Ragweed plant response rating (0 to 100 scale)
[19] = postemergence, 0 to 100 scale, 0 is no effect, 100 is complete control, read-out: Ragweed plant response rating
[20] = postemergence, visual injury vs untreated controls after approx. 10 d, 0 = no effect, 100 = complete control, read-out: Barnyardgrass plant response rating (0 to 100 scale)
[21] = postemergence, 0 to 100 scale, 0 is no effect, 100 is complete control, read-out: Barnyardgrass plant response rating
[22] = postemergence, visual injury vs untreated controls after approx. 10 d, 0 = no effect, 100 = complete control, read-out: Galium plant response rating (0 to 100 scale)
[23] = postemergence, 0 to 100 scale, 0 is no effect, 100 is complete control, read-out: Galium plant response rating

**Q.** With Cc1ccc([C@H]2CN(C)C(=O)[C@@H]2C(=O)Nc2cccc(F)c2C)cc1C [Compound 732] as the compound, how does the Corn plant response rating (crop injury, 0 = no effect, 100 = complete kill) at 125 g/ha (corn (Zea mays); [4]) read?
**A.** Its Corn plant response rating (crop injury, 0 = no effect, 100 = complete kill) at 125 g/ha is 70%.

**Q.** What about the pest or weed control at 125 g/ha [1, 5] of the same compound?
**A.** Its pest or weed control at 125 g/ha is 0%.

**Q.** And the pest or weed control at 125 g/ha [2, 6]?
**A.** The pest or weed control at 125 g/ha was 90%.

**Q.** What about the pest or weed control at 125 g/ha (Kochia (Kochia scoparia); [7]) of the same compound?
**A.** The pest or weed control at 125 g/ha was 20%.

**Q.** And the pest or weed control at 125 g/ha [3, 8]?
**A.** Its pest or weed control at 125 g/ha is 30%.

**Q.** What does the source list for COc1c(F)ccc([C@H]2CNC(=O)[C@@H]2C(=O)Nc2ccccc2S(C)(=O)=O)c1Cl [Compound 916]?
**A.** Corn plant response rating (crop injury, 0 = no effect, 100 = complete kill) at 125 g/ha (corn (Zea mays); Postemergence, 0 to 100 scale where 0 is no effect and 100 is complete control): 0%; pest or weed control at 125 g/ha ([1]; Postemergence, visual injury after approximately 10 d, 0 to 100 scale where 0 is no effect and 100 is complete control, read-out: Plant response rating, Ragweed): 0%; pest or weed control at 125 g/ha ([2]; Postemergence, visual injury after approximately 10 d, 0 to 100 scale where 0 is no effect and 100 is complete control, read-out: Plant response rating, Barnyardgrass): 30%; pest or weed control at 125 g/ha (Kochia (Kochia scoparia); Postemergence, visual injury after approximately 10 d, 0 to 100 scale where 0 is no effect and 100 is complete control, read-out: Plant response rating, Kochia): 0%; pest or weed control at 125 g/ha ([3]; Postemergence, visual injury after approximately 10 d, 0 to 100 scale where 0 is no effect and 100 is complete control, read-out: Plant response rating, Galium): 30%

**Q.** What does the source list for CSc1ccccc1NC(=O)[C@H]1C(=O)N(C)C[C@@H]1c1ccc(F)c(C)c1 [Compound 1312]?
**A.** plant injury at 125 g/ha (corn (Zea mays); [9]): 40%; Corn plant response rating (crop injury, 0 = no effect, 100 = complete kill) at 500 g/ha (corn (Zea mays); [10]): 90%; pest or weed control at 125 g/ha [1, 11]: 0%; pest or weed control at 500 g/ha [1, 12]: 70%; pest or weed control at 125 g/ha (Kochia (Kochia scoparia); [13]): 50%; pest or weed control at 500 g/ha (Kochia (Kochia scoparia); [14]): 70%; pest or weed control at 125 g/ha [3, 15]: 50%; pest or weed control at 500 g/ha [3, 16]: 60%

**Q.** With CC(F)(F)c1cccc([C@H]2CNC(=O)[C@@H]2C(=O)Nc2ccccc2F)c1 [Compound 782] as the compound, how does the Corn plant response rating (crop injury, 0 = no effect, 100 = complete kill) at 125 g/ha (corn (Zea mays); [4]) read?
**A.** Its Corn plant response rating (crop injury, 0 = no effect, 100 = complete kill) at 125 g/ha is 60%.

**Q.** And the pest or weed control at 125 g/ha [1, 5]?
**A.** Its pest or weed control at 125 g/ha is 0%.

**Q.** What about the pest or weed control at 125 g/ha [2, 6] of the same compound?
**A.** Its pest or weed control at 125 g/ha is 90%.

**Q.** And the pest or weed control at 125 g/ha (Kochia (Kochia scoparia); [7])?
**A.** Its pest or weed control at 125 g/ha is 10%.

**Q.** What about the pest or weed control at 125 g/ha [3, 8] of the same compound?
**A.** Its pest or weed control at 125 g/ha is 70%.

**Q.** For Cc1cccc([C@H]2CN(C)C(=O)[C@@H]2C(=O)Nc2ccc(F)c(F)c2F)c1 [Compound 1231], which plant injury at 125 g/ha (corn (Zea mays); [17]) is on record?
**A.** Its plant injury at 125 g/ha is 70%.

**Q.** And the plant injury at 500 g/ha (corn (Zea mays); postemergence)?
**A.** The plant injury at 500 g/ha was 80%.

**Q.** What about the pest or weed control at 125 g/ha [1, 18] of the same compound?
**A.** Its pest or weed control at 125 g/ha is 0%.

**Q.** What about the pest or weed control at 500 g/ha [1, 19] of the same compound?
**A.** Its pest or weed control at 500 g/ha is 30%.

**Q.** What about the pest or weed control at 125 g/ha [2, 20] of the same compound?
**A.** The pest or weed control at 125 g/ha was 80%.

**Q.** What about the pest or weed control at 500 g/ha [2, 21] of the same compound?
**A.** Its pest or weed control at 500 g/ha is 80%.

**Q.** And the pest or weed control at 125 g/ha [3, 22]?
**A.** The pest or weed control at 125 g/ha was 50%.

**Q.** What about the pest or weed control at 500 g/ha [3, 23] of the same compound?
**A.** Its pest or weed control at 500 g/ha is 70%.

**Q.** Which results are given for Cc1cc(F)cc([C@H]2CNC(=O)[C@@H]2C(=O)Nc2cccc(F)c2F)c1 [Compound 1309]?
**A.** plant injury at 125 g/ha (corn (Zea mays); [9]): 0%; Corn plant response rating (crop injury, 0 = no effect, 100 = complete kill) at 500 g/ha (corn (Zea mays); [10]): 20%; pest or weed control at 125 g/ha [1, 11]: 0%; pest or weed control at 500 g/ha [1, 12]: 30%; pest or weed control at 125 g/ha ([2]; Postemergence, visual rating about 10 d after treatment, read-out: Barnyardgrass plant response rating (0 to 100 scale, 0 no effect, 100 complete control)): 90%; pest or weed control at 500 g/ha ([2]; Postemergence, visual injury, 0 to 100 scale (0 no effect, 100 complete control), approx. 10 d, read-out: Plant response rating, Barnyardgrass): 90%; pest or weed control at 125 g/ha (Kochia (Kochia scoparia); [13]): 0%; pest or weed control at 500 g/ha (Kochia (Kochia scoparia); [14]): 50%; pest or weed control at 125 g/ha [3, 15]: 30%; pest or weed control at 500 g/ha [3, 16]: 50%

**Q.** For Cc1ccc([C@H]2CCN(C)C(=O)[C@@H]2C(=O)Nc2ccccc2C(F)(F)F)cc1 [Compound 1219], which plant injury at 125 g/ha (corn (Zea mays); [17]) is on record?
**A.** The plant injury at 125 g/ha was 0%.

**Q.** What about the plant injury at 500 g/ha (corn (Zea mays); postemergence) of the same compound?
**A.** The plant injury at 500 g/ha was 0%.

**Q.** And the pest or weed control at 125 g/ha [1, 18]?
**A.** Its pest or weed control at 125 g/ha is 0%.

**Q.** What about the pest or weed control at 500 g/ha [1, 19] of the same compound?
**A.** The pest or weed control at 500 g/ha was 20%.

**Q.** And the pest or weed control at 125 g/ha [2, 20]?
**A.** Its pest or weed control at 125 g/ha is 30%.

**Q.** And the pest or weed control at 500 g/ha [2, 21]?
**A.** Its pest or weed control at 500 g/ha is 60%.

**Q.** And the pest or weed control at 125 g/ha [3, 22]?
**A.** The pest or weed control at 125 g/ha was 0%.

**Q.** And the pest or weed control at 500 g/ha [3, 23]?
**A.** The pest or weed control at 500 g/ha was 0%.

From US12077503B2, “Substituted cyclic amides and their use as herbicides” (FMC CORPORATION, priority 2015, dated 2024)
